The values that follow come from US4882419A, “Process for preparing antibiotic L 17392 (deglucoteicoplanin)” (Gruppo Lepetit S.p.A., priority 1984, dated 1989).

≈ marks a conversion by molar mass, not a printed value.

Series [1] can be described thus: Solubility (physico-chemical characteristics). It counts as physicochemical.
The nature of series [2]: Potentiometric titration profile (pH1/2 values). It counts as physicochemical. The following applies: methylcellosolve:water 4:1, titration with 0.01N NaOH.
Series [3] concerns Escherichia coli SKF 12140. Put plainly: In vitro antibacterial activity, two-fold dilution MIC in microtiter system. It counts as cell-based. The following applies: Isosensitest broth, inoculum about 10^4 cfu/ml, 18-24 h at 37° C. Here is the method: (§1) The in vitro antibacterial activity of L 17392 was determined using the two-fold dilution method in microtiter system. Todd-Hewitt broth (Difco) was used for streptococci and Isosensitest broth (Oxoid) for staphylococci and gram-negative bacteria. Overnight broth cultures were diluted so that the final inoculum was about 10^4 colony-forming units per ml (cfu/ml).

The test system of series [4] is Proteus vulgaris × 19 H ATCC 881. The description is as above. It counts as cell-based. The following applies: Isosensitest broth, inoculum about 10^4 cfu/ml, 18-24 h at 37° C. Here is the method: as §1
Series [5] relates to Pseudomonas aeruginosa ATCC 10145. The description is as above. In kind it is cell-based. The following applies: Isosensitest broth, inoculum about 10^4 cfu/ml, 18-24 h at 37° C. Here is the method: as §1
Series [6] relates to Staphylococcus aureus ATCC 6538. The description is as above. It counts as cell-based. The following applies: Isosensitest broth, inoculum about 10^4 cfu/ml, 18-24 h at 37° C. Here is the method:
as §1

For series [7], the system named is Streptococcus faecalis ATCC 7080. The description is as above. In kind it is cell-based. The following applies: Todd-Hewitt broth, inoculum about 10^4 cfu/ml, 18-24 h at 37° C. Here is the method:
as §1

Series [8] has as its system Streptococcus pneumoniae UC 41. Described as above. It counts as cell-based. The following applies: Todd-Hewitt broth, inoculum about 10^4 cfu/ml, 18-24 h at 37° C. Here is the method: as §1
The test system of series [9] is Streptococcus pyogenes C 203. The description is as above. It counts as cell-based. The following applies: Todd-Hewitt broth, inoculum about 10^4 cfu/ml, 18-24 h at 37° C. Here is the method: as §1
Series [10] deals with Staplylococcus aureus Tour. Described as above. It counts as cell-based, Staphylococcus aureus. Here is the method:
The in vitro antibacterial activity of L 17392 was determined using the two-fold dilution method in microtiter system. Todd-Hewitt broth (Difco) was used for streptococci and Isosensitest broth (Oxoid) for staphylococci and gram-negative bacteria. Overnight broth cultures were diluted so that the final inoculum was about 10^4 colony-forming units per ml (cfu/ml). […] The obtained results are reported in Table I below: | ^(a) Inoculum: 10^6 cfu/ml | ^(b) Determined in the presence of 30% bovine serum

In series [11] the test system is Staphylococcus epieermidis ATCC 12228. The description is as above. In kind it is cell-based, Staphylococcus epidermidis. The following applies: Isosensitest broth, inoculum about 10^4 cfu/ml, 18-24 h at 37° C. Here is the method:
as §1

The subject of a further series is S. aureus L 1096. Briefly: MIC against clinical isolate methicillin-resistant staphylococci. It counts as cell-based. Here is the method: as §1
The next series has as its system S. aureus L 1097. Described as above. In kind it is cell-based. Here is the method: as §1
In the next series the test system is S. aureus L 1524. Described as above. In kind it is cell-based. Here is the method:
as §1

For the next series, the system named is S. aureus L 1526. The description is as above. In kind it is cell-based. Here is the method:
as §1

Another series concerns S. epidermidis L 1142. The description is as above. It counts as cell-based. Here is the method: as §1
For a further series, the system named is S. epidermidis L 1372. The series is described as above. It counts as cell-based. Here is the method:
as §1

The subject of a further series is S. epidermidis L 1378. Described as above. In kind it is cell-based. Here is the method:
as §1

The next series has as its system S. epidermidis L 785. The description is as above. In kind it is cell-based. Here is the method:
as §1

Another series concerns S. epidermidis L 835. Described as above. It counts as cell-based. Here is the method: as §1
Series [12] relates to staphylocci (S. aureus, S. epidermidis). Put plainly: Antibacterial activity against staphylococci, in words. It counts as cell-based. Here is the method: as §1
The subject of series [13] is clinical isolate methicillin-resistant staphylococci (S. aureus, S. epidermidis). Put plainly: Antibacterial activity against methicillin-resistant staphylococci, in words. The following applies: various clinical isolates. In kind it is cell-based. Here is the method: as §1
A short description of series [14]: pKa of a sample dissolved in methylcellosolve/water 4:1. In kind it is physicochemical.

`CC(=O)N[C@@H]1[C@@H](O[C@H]2c3ccc(c(Cl)c3)Oc3cc4cc(c3O)Oc3ccc(cc3Cl)C[C@@H]3NC(=O)[C@@H](N)c5ccc(O)c(c5)Oc5cc(O)cc(c5)[C@@H](NC3=O)C(=O)N[C@@H]4C(=O)N[C@@H]3C(=O)N[C@H]2C(=O)N[C@@H](C(=O)O)c2cc(O)cc(O)c2-c2cc3ccc2O)O[C@@H](CO)[C@H](O)[C@H]1O` (stereo in doubt) [antibiotic L 17046]: the solubility result in series [1] (dimethylformamide, dimethylsulfoxide, propyleneglycol and methylcellosolve) was “freely soluble”; in series [1] (methanol), “slightly soluble”; in series [1] (n-hexane, ethyl ether and acetone), “almost insoluble”; in series [1] (water at pH>8.0) it was “freely soluble”. In addition, the “pH1/2 value, third titration slope” value in [2] (five equivalents) is listed as 11. In [2] (one equivalent), the “pH1/2 value, first titration slope” value was determined as 5.0. For the same molecule, the “pH1/2 value, second titration slope” value in series [2] (one equivalent) amounted to 7.0.

One may read the MIC as the lowest concentration that inhibits growth of the organism. On to `N[C@H]1C(=O)N[C@@H]2Cc3ccc(c(Cl)c3)Oc3cc4cc(c3O)Oc3ccc(cc3Cl)[C@@H](O)[C@@H]3NC(=O)[C@H](NC(=O)[C@@H]4NC(=O)[C@@H](NC2=O)c2cc(O)cc(c2)Oc2cc1ccc2O)c1ccc(O)c(c1)-c1c(O)cc(O)cc1[C@@H](C(=O)O)NC3=O` [antibiotic L 17392, deglucoteicoplanin], for which the MIC in series [3] is 25 µg/mL (≈ 20.9 µM); in series [4], 50 µg/mL (≈ 41.7 µM); in [5], more than 100 µg/mL; in [6] it was 0.025 µg/mL (≈ 0.0209 µM); in series [7], 0.1 µg/mL (≈ 0.0834 µM); in series [8] it was 0.05 µg/mL (≈ 0.0417 µM). The MIC came out at 0.05 µg/mL (≈ 0.0417 µM) in series [9]; 0.2 µg/mL in series [10] (Determined in the presence of 30% bovine serum); 0.2 µg/mL (≈ 0.167 µM) in series [10] (Inoculum: 10^6 cfu/ml); 0.05 µg/mL (≈ 0.0417 µM) in series [10] (Isosensitest broth, inoculum about 10^4 cfu/ml, 18-24 h at 37° C.); 0.0125 µg/mL (≈ 0.0104 µM) in [11]; 0.05 µg/mL (≈ 0.0417 µM) in the series with S. aureus L 1096. Further, the MIC amounted to 0.05 µg/mL (≈ 0.0417 µM) in the series with S. aureus L 1097; 0.1 µg/mL (≈ 0.0834 µM) in the series on S. aureus L 1524; 0.05 µg/mL (≈ 0.0417 µM) against S. aureus L 1526; 0.05 µg/mL (≈ 0.0417 µM) against S. epidermidis L 1142; 0.2 µg/mL (≈ 0.167 µM) with S. epidermidis L 1372; 0.05 µg/mL (≈ 0.0417 µM) with S. epidermidis L 1378. Further, the MIC in the series on S. epidermidis L 785 and in the series with S. epidermidis L 835 was 0.05 µg/mL (≈ 0.0417 µM) each time. The solubility entry in series [1] (aqueous methanol, ethanol and acetone) is “soluble”; in series [1] (ethyl alcohol and dimethylformamide), “slightly soluble”; in series [1] (water at a pH higher than 9) it was “soluble”. For the same molecule, the “activity against staphylococci (in words)” value in series [12] is recorded as “very active”. In addition, the “activity against methicillin-resistant staphylococci (in words)” value in series [13] was “very effective”.

In series [14], “deglucoteicoplanin benzyl ester, hydrochloride” displayed a pKa value of 6.67.
